PubChem BioAssay (NCI)
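Following 48 hours of exposure in 96-well plates, responses at five concentrations were used to interpolate endpoints linearly. TGI denotes the concentration required for complete inhibition of growth.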

What was measured:
Experiment in all cases: NCI tumour cell line growth inhibition, 48 h
SR leukemia = system: SR leukemia
HCC-2998 colon = system: HCC-2998 colon
HT29 colon = system: HT29 colon
SK-MEL-5 melanoma = system: SK-MEL-5 melanoma
U251 CNS = system: U251 CNS
HOP-62 NSCLC = system: HOP-62 NSCLC
MDA-MB-231 breast = system: MDA-MB-231 breast
A549 NSCLC = system: A549 NSCLC
NCI-H522 lung = system: NCI-H522 lung
BT-549 breast = system: BT-549 breast

SMILES	TGI (SR leukemia)	TGI (HCC-2998 colon)	TGI (HT29 colon)	TGI (SK-MEL-5 melanoma)	TGI (U251 CNS)	TGI (HOP-62 NSCLC)	TGI (MDA-MB-231 breast)	TGI (A549 NSCLC)	TGI (NCI-H522 lung)	TGI (BT-549 breast)
O=C(Nc1ccccc1)O/N=C(/CBr)c1ccccc1	44.2 µM	36.6 µM	> 100 µM	28.1 µM	30.5 µM	68.7 µM	29.3 µM	> 100 µM	29.3 µM	–
COc1cc(OC)c2c(O)cc(CC(C)O)cc2c1 (stereo not given)	> 100 µM	> 100 µM	> 100 µM	> 100 µM	> 100 µM	> 100 µM	–	> 100 µM	> 100 µM	–
CC(C)/C(Cl)=N/OC(=O)Nc1ccc(F)c(Cl)c1	–	28.1 µM	13.3 µM	28.2 µM	40.3 µM	32.8 µM	30.7 µM	37.4 µM	3.01 µM	9.98 µM
O=c1[nH]nc(Cc2ccccc2)n1/N=C/c1c[nH]c2ccccc12	> 100 µM	> 100 µM	> 100 µM	> 100 µM	> 100 µM	> 100 µM	> 100 µM	> 100 µM	> 100 µM	–
C=CCC(C)C12CCNC(Cc3ccc(O)cc31)C2C (stereo not given)	> 100 µM	> 100 µM	> 100 µM	> 100 µM	> 100 µM	> 100 µM	> 100 µM	> 100 µM	–	–
Cc1ccc(C(=O)OC[C@H]2CC[C@@H](n3cc(N(C)C4CCCCC4)c(=O)[nH]c3=O)O2)cc1	> 100 µM	> 100 µM	37.8 µM	40.1 µM	38.7 µM	41.7 µM	41.3 µM	> 100 µM	46.6 µM	–
COC(=O)CCCc1ccc2c(c1)CC1(C2)Cc2cc3c(cc2C1)CCCC3	0.713 µM	74.5 µM	> 100 µM	41.2 µM	> 100 µM	> 100 µM	> 100 µM	67.7 µM	84 µM	–
CCN1CC(C)Cn2c(=O)[nH]c3cc(Br)cc1c32 (stereo not given)	–	> 100 µM	> 100 µM	> 100 µM	> 100 µM	> 100 µM	> 100 µM	> 100 µM	–	56.8 µM
CCCCOC(=O)CNC(=O)OCCCCC#CC#CCCCCOC(=O)NCC(=O)OCCCC	> 100 µM	> 100 µM	> 100 µM	> 100 µM	> 100 µM	> 100 µM	–	> 100 µM	> 100 µM	–
COc1cccc2cc(C)c(C(=O)c3ccccc3)nc12	–	> 100 µM	–	> 100 µM	> 100 µM	> 100 µM	–	> 100 µM	> 100 µM	–
Cc1ccc(C)n2c1nc1ccc3ccccc3c12	> 100 µM	> 100 µM	> 100 µM	> 100 µM	> 100 µM	> 100 µM	–	> 100 µM	–	> 100 µM
CC(=O)C1CC(C)=CCC12C(=O)Nc1ccccc12 (stereo not given)	–	> 100 µM	> 100 µM	> 100 µM	> 100 µM	> 100 µM	–	> 100 µM	> 100 µM	–
COC1=CC(=O)c2ccccc2C1(CCC=C(C)C)C1=NC(C)(C)CO1 (stereo not given)	> 100 µM	–	> 100 µM	> 100 µM	> 100 µM	> 100 µM	–	> 100 µM	> 100 µM	–
Cc1c(C)c(C)c(-n2[nH]c(=O)n(C)c2=O)c(C)c1C	> 100 µM	–	> 100 µM	> 100 µM	> 100 µM	> 100 µM	> 100 µM	> 100 µM	–	> 100 µM
CCC(CCCN)Nc1cc(OC)cc2cccnc12 (stereo not given)	> 100 µM	52.7 µM	> 100 µM	> 100 µM	–	> 100 µM	> 100 µM	> 100 µM	–	> 100 µM
CCC1C(=O)C[C@H]2[C@@H]3C(O)CC4=CC(=O)CC[C@]4(C)[C@H]3CC[C@]12C (stereo not given in full)	–	> 50 µM	> 50 µM	> 50 µM	> 50 µM	> 50 µM	> 50 µM	> 50 µM	> 50 µM	–
COc1ccc(N[C@H](CS(=O)c2ccc(C)cc2)c2ccc(F)cc2)cc1 (stereo not given in full)	–	> 100 µM	> 100 µM	> 100 µM	> 100 µM	> 100 µM	> 100 µM	> 100 µM	> 100 µM	> 100 µM
COc1ccc2c3c1OC1CC(O)C=CC31CCN(C)C2 (stereo not given)	–	> 150 µM	> 150 µM	> 150 µM	> 150 µM	> 150 µM	–	> 150 µM	> 150 µM	–
